Data: ChEMBL document CHEMBL1130653, “Derivatization of the C12-C13 functional groups of epothilones A, B and C” (Bioorg Med Chem Lett, 1998)
Converted amounts (≈) assume the structure as drawn.

Key:
[1] = Cytotoxicity against L929 fibroblast cell line; Weak cytotoxic activity.; format: functional, cell-based, Mus musculus
[2] = Compound was tested for cytotoxicity against L929 fibroblast cell lines in mouse; format: functional, cell-based

| Structure (SMILES) | IC50 [1] | IC50 [2] |
| --- | --- | --- |
| Cc1nc(CC(C)C(O)C[C@H]2OC(=O)C[C@H](O)C(C)(C)C(=O)[C@H](C)[C@@H](O)[C@@H](C)CCC[C@H]2O)cs1 (stereo partly drawn) | Weak cytotoxic activity |  |
| C/C(=C\c1csc(C)n1)[C@@H]1C[C@@H](Cl)[C@H](O)CCC[C@H](C)[C@H](O)[C@@H](C)C(=O)C(C)(C)[C@@H](O)CC(=O)O1 | Weak cytotoxic activity |  |
| C/C(=C\c1csc(C)n1)[C@@H]1C[C@H](O)[C@@]2(C)CCC[C@H](C)[C@H](O)[C@@H](C)C(=O)C(C)(C)C(CC(=O)O1)O2 | Weak cytotoxic activity |  |
| C/C(=C\c1csc(C)n1)[C@@H]1C[C@@H]2O[C@@H]2CCC[C@H](C)[C@H](O)[C@@H](C)C(=O)C(C)(C)[C@@H](O)CC(=O)O1 [EPOTHILONE A] | Weak cytotoxic activity |  |
| COC(C[C@H]1OC(=O)C[C@H](O)C(C)(C)C(=O)[C@H](C)[C@@H](O)[C@@H](C)CCC[C@H]1O)C(C)Cc1csc(C)n1 (stereo partly drawn) | Weak cytotoxic activity |  |
| C/C(=C\c1csc(C)n1)[C@H](O)C[C@H]1OC(=O)C[C@H](O)C(C)(C)C(=O)[C@H](C)[C@@H](O)[C@@H](C)CCC[C@@]1(C)O | Weak cytotoxic activity |  |
| C/C(=C\c1csc(C)n1)[C@@H]1C[C@@H](O)[C@H](O)CCC[C@H](C)[C@H](O)[C@@H](C)C(=O)C(C)(C)C(O)CC(=O)O1 (stereo partly drawn) | Weak cytotoxic activity |  |
| C/C(=C\c1csc(C)n1)[C@@H]1C[C@H](O)[C@@](C)(O)CCC[C@H](C)[C@H](O)[C@@H](C)C(=O)C(C)(C)C(O)CC(=O)O1 (stereo partly drawn) | Weak cytotoxic activity |  |
| C/C(=C\c1csc(C)n1)[C@@H]1CC2OC(C)(C)OC2CCC[C@H](C)[C@H](O)[C@@H](C)C(=O)C(C)(C)[C@@H](O)CC(=O)O1 (stereo partly drawn) |  | 0.15 µg/mL (≈ 0.272 µM) |
| C/C(=C\c1csc(C)n1)[C@H]1C[C@H]2OCC[C@H](O)C(C)(C)C(=O)[C@H](C)[C@@H](O)[C@@H](C)CCC[C@H]2O1 | Weak cytotoxic activity |  |
| C/C(=C\c1csc(C)n1)[C@@H]1C[C@@H]2OC(C)(C)O[C@@H]2CCC[C@H](C)[C@H](O)[C@@H](C)C(=O)C(C)(C)C(O)CC(=O)O1 (stereo partly drawn) | Weak cytotoxic activity |  |
| C/C(=C\c1csc(C)n1)[C@@H]1C[C@H](O)[C@@](C)(Cl)CCC[C@H](C)[C@H](O)[C@@H](C)C(=O)C(C)(C)[C@@H](O)CC(=O)O1 | Weak cytotoxic activity |  |
| C/C(=C\c1csc(C)n1)[C@@H]1C[C@H](O)[C@@H](Cl)CCC[C@H](C)[C@H](O)[C@@H](C)C(=O)C(C)(C)[C@@H](O)CC(=O)O1 | Weak cytotoxic activity |  |
| C/C(=C\c1csc(C)n1)[C@@H]1C[C@@H](O)[C@@H](O)CCC[C@H](C)[C@H](O)[C@@H](C)C(=O)C(C)(C)C(O)CC(=O)O1 (stereo partly drawn) | Weak cytotoxic activity |  |
| C/C(=C\c1csc(C)n1)[C@@H]1C[C@H]2OC(=O)C[C@H](O)C(C)(C)C(=O)[C@H](C)[C@@H](O)[C@@H](C)CCC[C@H]2O1 | Weak cytotoxic activity |  |
| C/C(=C\c1csc(C)n1)[C@@H]1CCCCCC[C@H](C)[C@H](O)[C@@H](C)C(=O)C(C)(C)C(O)CC(=O)O1 (stereo partly drawn) | Weak cytotoxic activity |  |
| C/C(=C\c1csc(C)n1)[C@@H]1CC(O)C(O)CCC[C@H](C)[C@H](O)[C@@H](C)C(=O)C(C)(C)[C@@H](O)CC(=O)O1 (stereo partly drawn) |  | > 4 µg/mL |
| C/C(=C\c1csc(C)n1)[C@@H]1C[C@H](O)[C@H](O)CCC[C@H](C)[C@H](O)[C@@H](C)C(=O)C(C)(C)C(O)CC(=O)O1 (stereo partly drawn) | Weak cytotoxic activity |  |
| C/C(=C\c1csc(C)n1)[C@@H](O)C[C@H]1OC(=O)C[C@H](O)C(C)(C)C(=O)[C@H](C)[C@@H](O)[C@@H](C)CCC[C@@]1(C)O | Weak cytotoxic activity |  |
| C/C(=C\c1csc(C)n1)[C@@H]1C[C@@H]2O[C@]2(C)CCC[C@H](C)[C@H](O)[C@@H](C)C(=O)C(C)(C)[C@@H](O)CC(=O)O1 [PATUPILONE] | Weak cytotoxic activity |  |
| C/C(=C\c1csc(C)n1)[C@@H]1C[C@H]2OCC[C@H](O)C(C)(C)C(=O)[C@H](C)[C@@H](O)[C@@H](C)CCC[C@H]2O1 | Weak cytotoxic activity |  |
| C/C(=C\c1csc(C)n1)[C@@H]1C/C=C\CCC[C@H](C)[C@H](O)[C@@H](C)C(=O)C(C)(C)[C@@H](O)CC(=O)O1 [EPOTHILONE C] |  | 0.1 µg/mL (≈ 0.209 µM) |
| C/C(=C\c1csc(C)n1)[C@H]1C[C@H]2OC(=O)C[C@H](O)C(C)(C)C(=O)[C@H](C)[C@@H](O)[C@@H](C)CCC[C@H]2O1 | Weak cytotoxic activity |  |
